# Assay results reported in publication PMC7690281 (Antiviral Research, 2020).
# “Also recorded” adds a separate entry of the source. Counter-ions that a name gives are not always drawn.
# What was measured:
# [1] = system: VSV pseudovirions with EBOV GP (rVSV-EBOV-luc); assay type: cell-based, Ebola virus (EBOV)
# [2] = system: acidic endosomes of Vero cells; assay type: cell-based
# ASFV Bpp30GFP = assay type: cell-based, African swine fever virus (ASFV); conditions: for reduction of ASFV infectivity: 10 μM
# [3] = system: ASFV viral DNA (p72 gene); assay type: cell-based, African swine fever virus (ASFV)
# [4] = system: ASFV early p30 and late p72 proteins; assay type: cell-based, African swine fever virus (ASFV)
# [5] = system: SARS-2-CoV spike protein-pseudotyped retrovirus (SARS-2-Spp); assay type: cell-based, SARS-CoV-2
# [6] = system: endolysosomal calcium in Vero cells; assay type: cell-based
compound,measurement,setting,value
Cc1cccc(/C=N/Nc2cc(N3CCOCC3)nc(OCCc3ccccn3)n2)c1 [Apilimod],"infectivity reduction, EBOV GP pseudovirus",[1],over 75%
"CO/C1=C\C(C)=C\[C@@H](C)[C@@H](O)[C@@H](C)C/C(C)=C/C=C/[C@H](OC)[C@@H]([C@@H](C)[C@@H](O)[C@H](C)[C@@]2(O)C[C@@H](O)[C@H](C)[C@@H](C(C)C)O2)OC1=O [BAF, Bafilomycin]",endosome acidification (LysoTracker Red staining),[2],strong reduction of acidic endosomes
"C[C@]12CC[C@@H]3c4ccc(O)cc4CC[C@H]3[C@@H]1CC[C@@H]2O [Estradiol, β-Estradiol]",effect on ASFV infection/entry,ASFV Bpp30GFP,low impact
"C[C@]12CC[C@@H]3c4ccc(O)cc4C[C@@H](CCCCCCCCC[S+]([O-])CCCC(F)(F)C(F)(F)F)[C@H]3[C@@H]1CC[C@@H]2O (stereo partly drawn) [Fulvestran, Fulvestrant]",impact on ASFV infectivity,ASFV Bpp30GFP; 100 μM,under 20%
"Cl.O=C(c1ccc(OCCN2CCCCC2)cc1)c1c(-c2ccc(O)cc2)sc2cc(O)ccc12 [Raloxifen, Raloxifene hydrochloride]",viral DNA replication (ASFV genome copy number),[3],reduced viral DNA synthesis
same,expression of early viral protein p30 and late viral protein p72,[4],reduction of the expression of early viral protein p30 and late viral protein p72
same,effect on ASFV infection/entry,ASFV Bpp30GFP,potent inhibitory effect; also recorded: strongly reduced ASFV entry
same,reduction of ASFV infectivity,ASFV Bpp30GFP,80%
same,reduction of SARS-2-Spp entry (luciferase levels) compared to vehicle,[5],over 90%
same,distribution of calcium indicator Fluo8,[6],calcium indicator markedly accumulated in fluorescent vesicles
same,distribution of calcium indicator Fluo8 and viral factories,[6],marked accumulation of fluorescent vesicles and the absence of viral factories
"CC/C(=C(\c1ccccc1)c1ccc(OCCN(C)C)cc1)c1ccccc1 [Tamoxifen, Tamoxifen citrate]",viral DNA replication (ASFV genome copy number),[3],reduced viral DNA synthesis
same,expression of early viral protein p30 and late viral protein p72,[4],reduction of the expression of early viral protein p30 and late viral protein p72
same,effect on ASFV infection/entry,ASFV Bpp30GFP,potent inhibitory effect; also recorded: strongly reduced ASFV entry
same,reduction of ASFV infectivity,ASFV Bpp30GFP,80%
"COc1ccc2cc1Oc1ccc(cc1)C[C@H]1c3cc(c(OC)cc3CCN1C)Oc1c(OC)c(OC)cc3c1[C@H](C2)N(C)CC3 [Tetrandine, Tetrandrine]",reduction of SARS-2-Spp entry (luciferase levels) compared to vehicle,[5],over 99%
COc1ccc(CCN(C)CCCC(C#N)(c2ccc(OC)c(OC)c2)C(C)C)cc1OC (stereo not drawn) [Verapamil],reduction of SARS-2-Spp entry (luciferase levels) compared to vehicle,[5],over 90%
Nc1ccc(C(=O)Nc2cccc(-c3nc(N4CCOCC4)c4oc5ncccc5c4n3)c2)cn1 [YM201636],reduction in the luciferase activity levels (SARS-2-Spp),[5]; 1 μM,65%
